Consider ten compounds from DBAASP.

≈ marks a conversion by molar mass, not a printed value.

Some test systems named below: Candida albicans; Escherichia coli UB1005; Micrococcus luteus; Saccharomyces cerevisiae; Bacillus subtilis; Escherichia coli JM109; Klebsiella pneumoniae.
Assay in all cases: ≥ marks a high value that may be exact or a test limit, other limits are often not marked, values filed in µg/mL are converted to µM
Test [1] relates to Streptococcus sanguinis ATCC 49295.
In test [2] the test system is Streptococcus gordonii ATCC 10558.
In test [3] the test system is Streptococcus mutans UA159.
The test system of test [4] is Streptococcus mutans GS-5.
Test [5] concerns Enterococcus faecalis ATCC 29212.
Test [6] has as its system Staphylococcus aureus ATCC 25923.
The test system of test [7] is Pseudomonas aeruginosa H103.
Test [8] concerns Salmonella enterica serovar Typhimurium.
Test [9] concerns Staphylococcus epidermidis.
Test [10] relates to Pseudomonas aeruginosa ATCC 15692.
For test [11], the system named is Escherichia coli ATCC 25922.
Test [12] concerns Pectobacterium carotovorum subsp. carotovorum DSM 30168.
In test [13] the test system is Xanthomonas vesicatoria DSM 50861.
Test [14] concerns Pseudomonas syringae pv. syringae DSM 10604.
The subject of test [15] is Pseudomonas syringae pv. tomato DC3000.
Test [16] concerns Pseudomonas corrugata DSM 7228.
For test [17], the system named is Clavibacter michiganensis subsp. michiganensis DSM 46294.

On to `CC(C)C[C@H](NC(=O)[C@H](CCCN=C(N)N)NC(=O)[C@H](Cc1ccccc1)NC(=O)[C@H](Cc1ccccc1)NC(=O)[C@@H](NC(=O)[C@H](CO)NC(=O)[C@@H](N)CC(C)C)[C@@H](C)O)C(=O)N[C@@H](Cc1ccccc1)C(=O)N[C@@H](CC(N)=O)C(=O)N[C@@H](CCCN=C(N)N)C(=O)N[C@@H](CO)C(=O)N[C@@H](Cc1ccccc1)C(=O)N[C@H](C(=O)N[C@@H](CCC(N)=O)C(=O)O)[C@@H](C)O` [LSTFFRLFNRSFTQ], for which the MIC in [1], in test [2], in test [3] and in [4] was not below 145 µM throughout.
For `CC(C)C[C@H](NC(=O)[C@H](CCCN=C(N)N)NC(=O)[C@H](Cc1ccccc1)NC(=O)[C@H](Cc1ccccc1)NC(=O)[C@@H](NC(=O)[C@@H](N)CO)[C@@H](C)O)C(=O)N[C@@H](Cc1ccccc1)C(=O)N[C@@H](CC(N)=O)C(=O)N[C@@H](CCCN=C(N)N)C(=O)N[C@@H](CO)C(=O)N[C@@H](Cc1ccccc1)C(=O)N[C@H](C(=O)N[C@@H](CCC(N)=O)C(=O)NCC(=O)N[C@@H](CCCN=C(N)N)C(=O)N[C@@H](CCCN=C(N)N)C(=O)N[C@@H](CCCN=C(N)N)C(=O)N[C@@H](CCCN=C(N)N)C(=O)N[C@@H](CO)C(=O)N[C@H](C(=O)N[C@@H](CCC(N)=O)C(=O)N[C@@H](Cc1c[nH]c2ccccc12)C(=O)N[C@@H](CS)C(=O)N[C@@H](C)C(=O)O)C(C)C)[C@@H](C)O` [STFFRLFNRSFTQGRRRRSVQWCA], the MIC was not below 33.1 µM in test [1], 16.6 µM (≈ 49.8 µg/mL) in test [2], 3.55 µM (≈ 10.7 µg/mL) in test [3] and 4.43 µM (≈ 13.3 µg/mL) in test [4].
On to `CC[C@H](C)[C@H](N)C(=O)N[C@@H](CCCN=C(N)N)C(=O)N[C@@H](CCSC)C(=O)N[C@@H](CCCN=C(N)N)C(=O)N[C@H](C(=O)N[C@@H](CCCN=C(N)N)C(=O)N[C@H](C(=O)N[C@@H](CC(C)C)C(=O)N[C@@H](CC(C)C)C(=O)O)C(C)C)[C@@H](C)CC` [IRMRIRVLL], for which the MIC stood at 16 µM (≈ 18.7 µg/mL) in test [5]; 16 µM (≈ 18.7 µg/mL) against Candida albicans; 4 µM (≈ 4.68 µg/mL) in test [6]; 16 µM (≈ 18.7 µg/mL) in [7]; 2 µM (≈ 2.34 µg/mL) in the test on Escherichia coli UB1005; 4 µM (≈ 4.68 µg/mL) in [8]. Further, in test [9], the MIC was 2 µM (≈ 2.34 µg/mL).
On to `CC[C@H](C)[C@H](NC(=O)[C@@H](N)Cc1ccccc1)C(=O)NCC(=O)N[C@@H](C)C(=O)N[C@@H](CC(C)C)C(=O)N[C@@H](CC(C)C)C(=O)N[C@@H](CCCN=C(N)N)C(=O)N1CCC[C@H]1C(=O)N[C@@H](C)C(=O)N[C@@H](CC(C)C)C(=O)N[C@@H](CCCCN)C(=O)N[C@@H](CC(C)C)C(=O)N[C@@H](CC(C)C)C(=O)N[C@@H](C)C(=O)NCC(=O)N[C@@H](CCCCN)C(N)=O` [FIGALLRPALKLLAGK], for which the MIC was not below 256 µM in test [10]; 4 µM (≈ 6.72 µg/mL) against Micrococcus luteus; 16 µM (≈ 26.9 µg/mL) in test [6]; 32 µM (≈ 53.8 µg/mL) in [11]; not below 128 µM against Saccharomyces cerevisiae.
As for `CC[C@H](C)[C@H](NC(=O)[C@H](CC(C)C)NC(=O)[C@H](CCCN=C(N)N)NC(=O)[C@H](CCCCN)NC(=O)[C@@H](NC(=O)[C@H](CC(C)C)NC(=O)[C@H](CCCCN)NC(=O)[C@H](CCCCN)NC(=O)[C@H](CCCN=C(N)N)NC(=O)[C@H](CCCCN)NC(=O)[C@H](CCCCN)NC(=O)[C@@H](N)CCCN=C(N)N)[C@@H](C)CC)C(N)=O` [RKKRKKLIKRLI], the MIC in test [12] came out at 6.33 µM (≈ 9.99 µg/mL); in [13], 3.16 µM (≈ 5 µg/mL); in [14], 0.0633 µM (≈ 0.1 µg/mL); in test [15], 6.33 µM (≈ 9.99 µg/mL); in [16], 0.316 µM (≈ 0.5 µg/mL); in [17], 3.16 µM (≈ 5 µg/mL).
For `CC(C)C[C@H](NC(=O)[C@H](CCCN=C(N)N)NC(=O)[C@H](Cc1ccccc1)NC(=O)[C@H](Cc1ccccc1)NC(=O)[C@@H](N)[C@@H](C)O)C(=O)N[C@@H](Cc1ccccc1)C(=O)N[C@@H](CC(N)=O)C(=O)N[C@@H](CCCN=C(N)N)C(=O)NCC(=O)N[C@@H](CCCN=C(N)N)C(=O)N[C@@H](CCCN=C(N)N)C(=O)N[C@@H](CCCN=C(N)N)C(=O)N[C@@H](CCCN=C(N)N)C(=O)N[C@@H](CO)C(=O)N[C@H](C(=O)N[C@@H](CCC(N)=O)C(=O)N[C@@H](Cc1c[nH]c2ccccc12)C(=O)N[C@@H](CS)C(=O)N[C@@H](C)C(=O)O)C(C)C` [TFFRLFNRGRRRRSVQWCA], the MIC in [1] was not below 40.5 µM; in test [2] it was 20.3 µM (≈ 49.8 µg/mL); in [3], 4.34 µM (≈ 10.7 µg/mL); in test [4], 5.06 µM (≈ 12.4 µg/mL).
For `CC(C)C[C@H](NC(=O)[C@H](CCCN=C(N)N)NC(=O)[C@H](Cc1ccccc1)NC(=O)[C@H](Cc1ccccc1)NC(=O)[C@@H](NC(=O)[C@@H](N)CO)[C@@H](C)O)C(=O)N[C@@H](Cc1ccccc1)C(=O)N[C@@H](CC(N)=O)C(=O)N[C@@H](CCCN=C(N)N)C(=O)N[C@@H](CO)C(=O)N[C@@H](Cc1ccccc1)C(=O)N[C@H](C(=O)N[C@@H](CCC(N)=O)C(=O)O)[C@@H](C)O` [STFFRLFNRSFTQ], the MIC in test [1], in test [2], in test [3] and in test [4] was not below 155 µM each time.
In the case of `CC[C@H](C)[C@H](NC(=O)[C@H](CCCCN)NC(=O)[C@H](CCCCN)NC(=O)[C@H](Cc1ccccc1)NC(=O)[C@@H](NC(=O)[C@H](CCCCN)NC(=O)[C@H](Cc1c[nH]c2ccccc12)NC(=O)[C@@H](N)CCCN=C(N)N)[C@@H](C)CC)C(=O)N[C@@H](CCC(=O)O)C(=O)N[C@@H](CCCCN)C(=O)N[C@@H](CCSC)C(=O)NCC(=O)NCC(=O)N[C@@H](CO)C(=O)N[C@@H](Cc1ccc(O)cc1)C(=O)N[C@@H](CS)C(=O)N[C@@H](CC(N)=O)C(=O)N[C@@H](CCCN=C(N)N)C(=O)N[C@@H](CCCN=C(N)N)C(=O)N[C@H](C(=O)NCC(=O)N[C@@H](CCCCN)C(=O)N[C@@H](CS)C(=O)N[C@@H](CCC(N)=O)C(=O)N[C@@H](CCCN=C(N)N)C(=O)N[C@@H](CCSC)C(=O)O)[C@@H](C)O` [RWKIFKKIEKMGGSYCNRRTGKCQRM], the MIC against Candida albicans was 50 µM (≈ 160 µg/mL); in the test with Saccharomyces cerevisiae, 28.3 µM (≈ 90.7 µg/mL); with Bacillus subtilis it was 10 µM (≈ 32.1 µg/mL); against Escherichia coli JM109, 28.3 µM (≈ 90.7 µg/mL); in the test on Klebsiella pneumoniae it was 80 µM (≈ 256 µg/mL).
With `CC(C)C[C@H](NC(=O)[C@H](C)NC(=O)[C@H](CCCCN)NC(=O)[C@H](CCCCN)NC(=O)[C@H](C)NC(=O)[C@H](Cc1ccccc1)NC(=O)[C@H](CCCN=C(N)N)NC(=O)[C@@H](N)CC(C)C)C(=O)N[C@@H](CCCCN)C(=O)N[C@@H](CCCCN)C(=O)N[C@@H](CC(C)C)C(=O)N[C@@H](Cc1ccccc1)C(N)=O` [LRFAKKALKKLF], the MIC in test [12] was 6.84 µM (≈ 9.99 µg/mL); in test [13], 1.71 µM (≈ 2.5 µg/mL); in [14], 0.171 µM (≈ 0.25 µg/mL); in test [15], 0.171 µM (≈ 0.25 µg/mL); in [16], 0.684 µM (≈ 0.999 µg/mL); in [17], 1.71 µM (≈ 2.5 µg/mL).
In the case of `CC[C@H](C)[C@H](NC(=O)[C@H](CC(C)C)NC(=O)[C@H](CCSC)NC(=O)[C@H](CCCN=C(N)N)NC(=O)[C@H](Cc1c[nH]c2ccccc12)NC(=O)[C@H](Cc1c[nH]c2ccccc12)NC(=O)[C@H](CCCCN)NC(=O)[C@H](Cc1ccccc1)NC(=O)[C@@H](N)CCCCN)C(=O)O` [KFKWWRMLI], the MIC was 2.3 µM (≈ 3.01 µg/mL) in [5]; 4.6 µM (≈ 6.02 µg/mL) in the test with Candida albicans; 1.2 µM (≈ 1.57 µg/mL) in test [6]; 4.6 µM (≈ 6.02 µg/mL) in test [7]; 0.6 µM (≈ 0.785 µg/mL) in the test on Escherichia coli UB1005; 2.3 µM (≈ 3.01 µg/mL) in [8]. In [9], this compound came in with an MIC of 0.6 µM (≈ 0.785 µg/mL).

One may read the MIC as the lowest concentration that inhibits growth of the organism. A low value points to inhibition by little substance.
